Measured values from US6835382B2, “Ii peptide therapeutics to enhance antigen presentation” (University of Massachusetts, priority 1996, dated 2004).
No end group written: not given here.

Tests used:
HLA-DR1 molecules [1] = assay: release of biotin-labeled hMBP(90-102) from HLA-DR1 in the presence of unlabeled hMBP (assay II); assay type: binding, human; details: Table 37, unlabeled hMBP(90-102) 250 μM
HLA-DR1 molecules [2] = target: T1, HLA-DR1 molecules (Homo sapiens, UniProt P01903+P01911, A100R/D57E/F55L/F60I/F76Y/I96L/L162R/M171V/P40L/Q125E/R42F/V115G/Y59C); assay: binding of biotin-labeled hMBP(90-102) to "empty" HLA-DR1 (assay IV); details: Table 39; AE101 series compound 64 μM; biotin-labeled hMBP(90-102) 50 μM, 37° C., 1 h; no enhancement = 1
T1 construct: The HLA-DR alpha gene was truncated after Asn^192 to remove transmembranal and cytoplasmic regions from the protein product; A gene coding for the HLA-DR1 beta chain was truncated after position Lys^198, again to delete the transmembranal region; made in house; host or cells: insect cell line printed as HS / H5 (Invitrogen), co-infected with two baculoviruses; concentrated culture supernatant captured on 12CA5 antibody

Substance: cyclic LRMKLPK (bridge (positions not given here); also: cyclic, ring type not given here) [AE381, “head-to-tail” cyclization from the amino-terminus to the carboxyl-terminus of AE114]
- Relative Release, With unlabeled hMBP(90-102), 1 μM (HLA-DR1 molecules [1]; AE101 series compound 1 μM): 0.09
- Relative Release, With unlabeled hMBP(90-102), 64 μM (HLA-DR1 molecules [1]; AE101 series compound 64 μM): −0.19
- Relative Enhancement (HLA-DR1 molecules [2]): 1.84
